Measured values published in patent publication US20200140375A1, “COMPOSITIONS AND METHODS FOR TREATING CONDITIONS ASSOCIATED WITH ALTERED TCA CYCLE METABOLISM” (IMBRIA PHARMACEUTICALS, INC., priority 2017, published 2020).

Experiment: solubility in water
Format: physicochemical
From the text: The compound of formula (XIII) was made and analyzed.

solubility: 1200 mg/mL
SMILES: N[C@@H](COC(=O)CCC(=O)OCC(O)CO)C(=O)O (stereo partly shown) [formula (XIII)]
